Source: patent US20240360114A1 (SIRONAX LTD., priority 2021, published 2024)

System: HT-1080 cells
Assay: HT-1080 cell viability assay (ferroptosis induced by RSL3, Cell Titer-Glo)
Type: cell-based
Settings: Homo sapiens, HT-1080, 20 h, ferroptosis inducer RSL3, 20 hours, ferroptosis inhibitory activity, Table 2
In short: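 Cells seeded overnight, then co-treated with RSL3 and compound (3-fold, 10-point dilution, top 1.1 μM) for 20 hours. Viability by CellTiter-Glo luminescence, normalized to untreated controls; EC50 from sigmoidal non-linear regression.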

Structure (SMILES) | EC50 [nM]
CC1CN(c2c(F)cc(NC[C@H]3CC[C@H](N)CC3)cc2F)CC(C)O1 (stereo partly drawn) [Compound 439, N-(((1r,4r)-4-aminocyclohexyl)methyl)-4-(2,6-dimethylmorpholino)-3,5-difluoroaniline] | 100 to 1000
NC1CCC(Nc2ccc(N3CCC(C(F)(F)F)CC3)c(OCCO)c2)CC1 (stereo not drawn) [Compound 416, (5-((4-aminocyclohexyl)amino)-2-(4-(trifluoromethyl)piperidin-1-yl)phenoxy) ethan-1-ol] | 0.1 to 100
CC(C)(C)c1ccc(NCC2CCC(N)C2)cc1 (stereo not drawn) [Compound 328, N-((3-aminocyclopentyl)methyl)-4-(tert-butyl)aniline] | 0.1 to 100
NC1CCC(Nc2cccnc2)CC1 (stereo not drawn) [Compound 163, N1-(pyridin-3-yl)cyclohexane-1,4-diamine] | 1000 to 10000
CC(C)C1CCN(c2ncc(NC[C@H]3CC[C@H](NC(N)=O)CC3)cn2)CC1 [Compound 409, 1-((1r,4r)-4-(((2-(4-isopropylpiperidin-1-yl)pyrimidin-5-yl)amino)methyl)cyclohexyl)urea] | 0.1 to 100
N[C@H]1CCC[C@H]1Nc1ccc(N2CCC(C(F)(F)F)CC2)cc1 [Compound 454, (1R, 2S)-N1-(4-(4-(trifluoromethyl)piperidin-1-yl)phenyl)cyclopentane-1.2-diamine] | 0.1 to 100
Cc1cc(NC2CCC(CN)CC2)cc(C)c1C (stereo not drawn) [Compound 312, N-(4-(aminomethyl)cyclohexyl)-3,4,5-trimethylaniline] | 0.1 to 100
O=C(NCC1CCC(Nc2ccc(N3CCC(C(F)(F)F)CC3)cc2)CC1)C1CCNC1 (stereo not drawn) [Compound 19, N-((4-((4-(4-(trifluoromethyl)piperidin-1-yl)phenyl)amino)cyclohexyl)methyl)pyrrolidine-3-car boxamide] | 0.1 to 100
COC1(C(F)(F)F)CCN(c2ccc(NC[C@H]3CC[C@H](N)CC3)c(C)n2)CC1 [Compound 510, N-(((1r,4r)-4-aminocyclohexyl)methyl)-6-(4-methoxy-4-(trifluoromethyl)piperidin-1-yl)-2-methylpyridin-3-amine] | 0.1 to 100
CNCC1CC(Nc2ccc(C(C)(C)C)cc2)C1 (stereo not drawn) [Compound 237, 4-(tert-butyl)-N-(3-((methylamino)methyl)cyclobutyl)aniline] | 1000 to 10000
CC(C)(C)c1ccc(NCCn2ccnc2)cc1 [Compound 175, N-(2-(1H-imidazol-1-yl)ethyl)-4-(tert-butyl)aniline] | 1000 to 10000
CC(C)C1CCN(c2ncc(NC[C@H]3CC[C@H](C(N)=O)CC3)cn2)CC1 [Compound 423, (1r,4r)-4-(((2-(4-isopropylpiperidin-1-yl)pyrimidin-5-yl)amino)methyl)cyclohexane-1-carboxamide] | 0.1 to 100
Cc1c(NC[C@H]2CC[C@H](N)CC2)ccc(N2CC(C)OC(C)C2)c1F (stereo partly drawn) [Compound 433, N-(((1r,4r)-4-aminocyclohexyl)methyl)-4-(2,6-dimethylmorpholino)-3-fluoro-2-methylaniline] | 0.1 to 100
CC(C)(C)c1ccc(NC2CCC(NS(N)(=O)=O)CC2)cc1 (stereo not drawn) [Compound 259A] | 100 to 1000
COCCN(C)CCNc1ccc(C(C)(C)C)cc1 [Compound 211, N1-(4-(tert-butyl)phenyl)-N2-(2-methoxyethyl)-N2-methylethane-1,2-diamine] | 1000 to 10000
CC1(C)CCC(c2ccc(NC3CCN(C(=O)[C@H]4CNC(=O)N4)CC3)cc2)CC1 [Compound 154, (R)-4-(4-((4-(4,4-dimethylcyclohexyl)phenyl)amino)piperidine-1-carbonyl) imidazolidin-2-one] | 100 to 1000
CN(C)C1CCC(Nc2ccc(C3CCC(C)(C)CC3)cc2)CC1 (single isomer, unassigned) [Compound 91A, N1-(4-(4,4-dimethylcyclohexyl)phenyl)-N4,N4-dimethylcyclohexane-1,4-diamine] | 0.1 to 100
Cc1nc(N2CCC(N3C[C@@H](C)O[C@@H](C)C3)CC2)ccc1NC1CC2(CC(N)C2)C1 (stereo partly drawn) [Compound 537, N2-(6-(4-((2S,6R)-2,6-dimethylmorpholino)piperidin-1-yl)-2-methylpyridin-3-yl)spiro[3.3]heptane-2,6-diamine] | 100 to 1000

Structure (SMILES) | EC50 [nM]
CC(C)C1CCN(c2ncc(NC3CCNCC3)cn2)CC1 [Compound 35, 2-(4-isopropylpiperidin-1-yl)-N-(piperidin-4-yl)pyrimidin-5-amine] | 0.1 to 100
NC1CCC(Nc2ccc3c(c2)OCC3)CC1 (stereo not drawn) [Compound 166, N1-(2,3-dihydrobenzofuran-6-yl)cyclohexane-1,4-diamine] | 1000 to 10000
CNCC1CCC(Nc2ccc(C(C)(C)C)cc2)CC1 (stereo not drawn) [Compound 87, 4-(tert-butyl)-N-(4-((methylamino)methyl)cyclohexyl)aniline] | 0.1 to 100
CCCCCNc1ccc(N2CCC(C(F)(F)F)CC2)cc1 [Compound 15, N-pentyl-4-(4-(trifluoromethyl)piperidin-1-yl)aniline] | 0.1 to 100
CC1CN(c2ccc3cc(NC4CC5(CC(N)C5)C4)ccc3n2)CC(C)N1C(=O)C(F)(F)F (stereo not drawn) [Compound 566] | 0.1 to 100
CC(C)(C)c1ccc(NCCN2CCCC2)cc1 [Compound 202, 2-(pyrrolidin-1-yl) acetaldehyde--4-(tert-butyl)-N-(2-(pyrrolidin-1-yl)ethyl)aniline-4-(tert-butyl)aniline] | 1000 to 10000
CC1(C)CCC(c2ccc(NC3CCC(O)C3)cc2)CC1 (stereo not drawn) [Compound 151] | 0.1 to 100
CN(C)C(=O)C1CCC(Nc2ccc(N3CCC(C(F)(F)F)CC3)cc2)CC1 (stereo not drawn) [Compound 366, N,N-dimethyl-4-((4-(4-(trifluoromethyl)piperidin-1-yl)phenyl)amino)cyclohexane-1-carboxamide] | 0.1 to 100
O=C1NC[C@H](C(=O)NCC2CCC(Nc3ccc(C4CCCCC4)cc3)CC2)N1 (single isomer, unassigned) [Compound 117A] | 0.1 to 100
Cc1cc(NC2CCC(N)CC2)ccc1C(C)(C)C (stereo not drawn) [Compound 217, N1-(4-(tert-butyl)-3-methylphenyl)cyclohexane-1,4-diamine] | 0.1 to 100
CCCCCN(CC)c1ccc(NC[C@H]2CC[C@H](N)CC2)cc1 [Compound 386, N1-(((1r,4r)-4-aminocyclohexyl)methyl)-N4-ethyl-N4-pentylbenzene-1,4-diamine] | 0.1 to 100
Cc1cc(NC2CC(C(=O)NN)C2)ccc1N1CCC(C)CC1 (stereo not drawn) [Compound 489] | 0.1 to 100
COc1cc(NC[C@H]2CC[C@H](N)CC2)ccc1N1C[C@@H](C)O[C@H](C)C1 (stereo in doubt) [Compound 496, N-(((1r,4R)-4-aminocyclohexyl)methyl)-4-((2S,6R)-2,6-dimethylmorpholino)-3-methoxyaniline] | 100 to 1000
Cc1nc(C2CCC(C)(C)CC2)ccc1NC1CCC(CN)CC1 (stereo not drawn) [Compound 80, N-(4-(aminomethyl)cyclohexyl)-6-(4,4-dimethylcyclohexyl)-2-methylpyridin-3-amine] | 100 to 1000
CNCC1CCC(Nc2ccc(C3CCC(C)(C)CC3)cc2)CC1 (stereo not drawn) [Compound 86, 4-(4,4-dimethylcyclohexyl)-N-(4-((methylamino)methyl)cyclohexyl)aniline] | 0.1 to 100
CC(C)(C)Nc1ccc(C2CCNCC2)cc1 [Compound 207, N-(tert-butyl)-4-(piperidin-4-yl)aniline] | 1000 to 10000
Cc1nc(N2CCSCC2)ccc1NC1CC2(CC(N)C2)C1 (stereo not drawn) [Compound 569, N^2-(2-methyl-6-thiomorpholinopyridin-3-yl) spiro[3.3]heptane-2,6-diamine] | 0.1 to 100
CC1CN(c2ccc(NC3CCC(N)CC3)cc2)CC(C)O1 (stereo not drawn) [Compound 450, N1-(4-(2,6-dimethylmorpholino)phenyl)cyclohexane-1,4-diamine] | 100 to 1000

Same assay, conditions: Homo sapiens, HT-1080, 20 h, ferroptosis inducer RSL3, 20 hours, ferroptosis inhibitory activity, Table 3

Structure (SMILES) | EC50 [nM]
NC(=O)C1CC2(CC(Nc3ccc4cc(N5CCC(C(F)(F)F)CC5)ccc4c3)C2)C1 (stereo not drawn) [Compound 584, 6-((6-(4-(trifluoromethyl)piperidin-1-yl)naphthalen-2-yl)amino)spiro[3.3]heptane-2-carboxamide] | 0.1 to 100
C[C@@H]1CN(c2ccc3cc(NCC[C@H]4C[C@H](N)C4)ccc3c2)C[C@H](C)O1 [Compound 583, N-(2-((1r,3S)-3-aminocyclobutyl)ethyl)-6-((2S,6R)-2,6-dimethylmorpholino) naphthalen-2-amine] | 0.1 to 100
Cc1nc(NC(C)(C)C)ccc1NC[C@H]1CC[C@H](N)CC1 [Compound 595, N^5-(((1r,4r)-4-aminocyclohexyl)methyl)-N^2-(tert-butyl)-6-methylpyridine-2,5-diamine] | 0.1 to 100
C[C@@H]1CN(c2ccc3cc(NC4CC(CN)C4)ccc3c2)C[C@H](C)O1 (stereo partly drawn) [Compound 649, N-(3-(aminomethyl)cyclobutyl)-6-((2S,6R)-2,6-dimethylmorpholino) naphthalen-2-amine] | 0.1 to 100
Cc1cc(NC2CC(N)C2)ccc1N1CC(C)N(CC(F)(F)F)C(C)C1 (stereo not drawn) [Compound 612, N1-(4-(3,5-dimethyl-4-(2,2,2-trifluoroethyl)piperazin-1-yl)-3-methylphenyl)cyclobutane-1,3-diamine] | 0.1 to 100

Same assay, conditions: Homo sapiens, ferroptosis inducer RSL3, 20 hours, ferroptosis inhibitory activity, Table 2

Structure (SMILES) | EC50 [nM]
NC(=O)[C@@H]1CCC(Nc2ccc(N3CCC(C(F)(F)F)CC3)cc2)[C@@H](N)C1 (stereo in doubt) [Compound 502, (1R,3S)-3-amino-4-((4-(4-(trifluoromethyl)piperidin-1-yl)phenyl)amino)cyclohexane-1-carboxamide] | 0.1 to 100

Same assay, conditions: ferroptosis inducer RSL3, 20 hours, ferroptosis inhibitory activity, Table 2

Structure (SMILES) | EC50 [nM]
CC1CC(N)CCC1Nc1ccc(C(C)(C)C)cc1 (single isomer, unassigned) [Compound 252A, N1-(4-(tert-butyl)phenyl)-2-methylcyclohexane-1,4-diamine] | 100 to 1000
Cc1nc(N2CC(C)OC(C)C2)c(F)cc1NC1C2CC3CC1CC(CN)(C3)C2 (single isomer, unassigned) [Compound 539A, N-((2r,5s)-5-(aminomethyl)adamantan-2-yl)-6-(2,6-dimethylmorpholino)-5-fluoro-2-methylpyridin-3-amine] | 0.1 to 100
CC1CN(c2ccc(NC3CC4(CC(N)C4)C3)cc2F)CC(C)N1CC(F)(F)F (stereo not drawn) [Compound 535] | 0.1 to 100
